Holding throughout (format): cell-based
For one assay, the system named is Corynebacterium. The assay can be described thus: MIC and synergism (Kull) against Corynebacterium, Landy minimal medium pH 9. Here is the method:
(§1) The synergism was determined by the method described by Kull et al. (F. C. Kull, P. C. Eismann, H. D. Sylvestrowicz, R. L. Mayer, Applied Microbiology 9, 538 to 541, 1961). The following relationships apply:
(§2) [formula] • Qa=amount of substance A • Qb=amount of substance B • MIC(A)=concentration of substance A which prevents microbial growth • MIC(B)=concentration of substance B which prevents microbial growth • MIC(A+B)=concentration of substance A+B which prevents microbial growth • SI=synergistic index, where SI=1 means additive effect • SI>1 means antagonism • SI<1 means synergism
Various concentrations of GDA and MIT and mixtures of the two abovementioned active substances were tested against the bacterium Corynebacterium. The incubation is performed in Landy minimal medium at pH 9 and 26° C. The growth of Corynebacterium was compared at the various active substance concentrations with the growth without active substance. The lowest concentration at which growth was no longer detected is stated as the minimum inhibitory concentration (MIC).

In a further assay the test system is Rhodotorula rubra. The assay can be described thus: MIC and synergism (Kull) against yeast Rhodotorula rubra, malt extract liquid medium. Here is the method: as §1, §2
Various concentrations of GDA and MIT and mixtures of the two abovementioned active substances were tested against the yeast Rhodotorula rubra. The incubation is performed in malt extract liquid medium at 26° C. The growth of Rhodotorula rubra was compared at the various active substance concentrations with the growth without active substance. The lowest concentration at which growth was no longer detected is stated as the minimum inhibitory concentration (MIC).

For assay [1], the system named is Pseudomonas fluorescens. Put plainly: MIC and synergism (Kull) against Pseudomonas fluorescens, Landy minimal medium pH 7. Here is the method: as §1, §2
Various concentrations of GDA and MIT and mixtures of the two abovementioned active substances were tested against the bacterium Pseudomonas fluorescens. The incubation is performed in Landy minimal medium at pH 7 and 26° C. The growth of Pseudomonas fluorescens was compared at various active substance concentrations with the growth without active substance. The lowest concentration at which growth was no longer detected is stated as the minimum inhibitory concentration (MIC).

In assay [2] the test system is Pseudomonas fluorescens. Put plainly: MIC and synergism (Kull) against Pseudomonas fluorescens, Landy minimal medium pH 9. Here is the method:
as §1, §2
Various concentrations of GDA and MIT and mixtures of the two abovementioned active substances were tested against the bacterium Pseudomonas fluorescens. The incubation is performed in Landy minimal medium at pH 9 and 26° C. The growth of Pseudomonas fluorescens was compared at the various active substance concentrations with the growth without active substance. The lowest concentration at which growth was no longer detected is stated as the minimum inhibitory concentration (MIC).

Where [3] appears, read: Landy minimal medium, pH 9, 26° C.

Turning to `O=CCCCC=O` [GDA, glutardialdehyde], the MIC was 10 ppm with Corynebacterium (setting [3]); 100 ppm with Rhodotorula rubra (Rhodotorula rubra, malt extract liquid medium, 26° C.); 20 ppm with Pseudomonas fluorescens [1] (Landy minimal medium, pH 7, 26° C.); 50 ppm in the assay on Pseudomonas fluorescens [2] (setting [3]).
Consider `Cn1sccc1=O` [MIT, 2-methyl-2H-isothiazol-3-one], for which the MIC in the assay on Corynebacterium (pH 9) amounted to 5 µg/mL; in the assay on Rhodotorula rubra (Rhodotorula), 50 µg/mL; in the assay on Pseudomonas fluorescens [1] (pH 7) it was 5 µg/mL; in the assay on Pseudomonas fluorescens [2] (pH 9) it was 20 µg/mL.

The record behind these values is patent US20110009462A1, “STABLE, SYNERGISTIC MIXTURES” (LANXESS DEUTSCHLAND GMBH, priority 2007, published 2011).
